Data from publication PMC10364322, “Evaluation of chronic drug-induced electrophysiological and cytotoxic effects using human-induced pluripotent stem cell-derived cardiomyocytes (hiPSC-CMs)” (Frontiers in Pharmacology, 2023).
Read-outs that look alike come from different tables or passages of the source.

Test system: hiPSC-CMs (iCell-Cardiomyocytes^2)
Procedure, shortened: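 Monolayers of hiPSC-CMs on fibronectin-coated MEA plates, 50 K/well, kept at 37°C, 5% CO2; compounds added in 0.1% final DMSO after 5-min baseline. Field potential and impedance parameters expressed as mean ± SD percent change from baseline; arrhythmic events noted; cytotoxicity fluorescence normalized to DMSO, Kruskal-Wallis.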

## Cc1cn(-c2cc(NC(=O)c3ccc(C)c(Nc4nccc(-c5cccnc5)n4)c3)cc(C(F)(F)F)c2)cn1 [Nilotinib]
0.01 µM, 2h
  BR (beat rate) % change from baseline: 1±2%
  Beating below threshold, number of observations/total well numbers: 0/5
  Cessation of beating, number of observations/total well numbers: 0/5
  EAD, number of observations/total well numbers: 0/5
  FPD (field-potential duration), % change from baseline: 3.9±3.8%
  FPDc (field-potential duration corrected by beat-rate), % change from baseline: 4.1±4%
  Flat T-wave-like, number of observations/total well numbers: 0/5
0.01 µM, 24h
  BR (beat rate) % change from baseline: -1±3%
  Beating below threshold, number of observations/total well numbers: 0/5
  Cessation of beating, number of observations/total well numbers: 0/5
  EAD, number of observations/total well numbers: 0/5
  FPD (field-potential duration), % change from baseline: 6.4±4.8%
  FPDc (field-potential duration corrected by beat-rate), % change from baseline: 6.1±4.9%
  Flat T-wave-like, number of observations/total well numbers: 0/5
0.01 µM, 48h
  BR (beat rate) % change from baseline: -3±2%
  Beating below threshold, number of observations/total well numbers: 0/5
  Cessation of beating, number of observations/total well numbers: 0/5
  EAD, number of observations/total well numbers: 0/5
  FPD (field-potential duration), % change from baseline: 12.9±12.2%
  FPDc (field-potential duration corrected by beat-rate), % change from baseline: 11.9±11.5%
  Flat T-wave-like, number of observations/total well numbers: 0/5
0.01 µM, 72h
  BR (beat rate) % change from baseline: -8±2%
  Beating below threshold, number of observations/total well numbers: 0/5
  Cessation of beating, number of observations/total well numbers: 0/5
  EAD, number of observations/total well numbers: 0/5
  FPD (field-potential duration), % change from baseline: 10.1±2.4%
  FPDc (field-potential duration corrected by beat-rate), % change from baseline: 7.1±2.3%
  Flat T-wave-like, number of observations/total well numbers: 0/5
0.01 µM, 96h
  BR (beat rate) % change from baseline: -14±3%
  Beating below threshold, number of observations/total well numbers: 0/5
  Cessation of beating, number of observations/total well numbers: 0/5
  EAD, number of observations/total well numbers: 0/5
  FPD (field-potential duration), % change from baseline: 13.9±2.5%
  FPDc (field-potential duration corrected by beat-rate), % change from baseline: 8.7±2.6%
  Flat T-wave-like, number of observations/total well numbers: 0/5
0.1 µM, 2h
  BR (beat rate) % change from baseline: -1±1%
  Beating below threshold, number of observations/total well numbers: 0/5
  Cessation of beating, number of observations/total well numbers: 0/5
  EAD, number of observations/total well numbers: 0/5
  FPD (field-potential duration), % change from baseline: 8.9±9.8%
  FPDc (field-potential duration corrected by beat-rate), % change from baseline: 8.6±10.1%
  Flat T-wave-like, number of observations/total well numbers: 0/5
0.1 µM, 24h
  BR (beat rate) % change from baseline: -8±3%
  Beating below threshold, number of observations/total well numbers: 0/5
  Cessation of beating, number of observations/total well numbers: 0/5
  EAD, number of observations/total well numbers: 0/5
  FPD (field-potential duration), % change from baseline: 19.8±3.9 %
  FPDc (field-potential duration corrected by beat-rate), % change from baseline: 16.6±4.1 %
  Flat T-wave-like, number of observations/total well numbers: 0/5
0.1 µM, 48h
  BR (beat rate) % change from baseline: -8±4%
  Beating below threshold, number of observations/total well numbers: 0/5
  Cessation of beating, number of observations/total well numbers: 0/5
  EAD, number of observations/total well numbers: 0/5
  FPD (field-potential duration), % change from baseline: 15.4±2.6%
  FPDc (field-potential duration corrected by beat-rate), % change from baseline: 12.7±3%
  Flat T-wave-like, number of observations/total well numbers: 0/5
0.1 µM, 72h
  BR (beat rate) % change from baseline: -11±4%
  Beating below threshold, number of observations/total well numbers: 0/5
  Cessation of beating, number of observations/total well numbers: 0/5
  EAD, number of observations/total well numbers: 0/5
  FPD (field-potential duration), % change from baseline: 17.3±1.9%
  FPDc (field-potential duration corrected by beat-rate), % change from baseline: 12.5±1.7%
  Flat T-wave-like, number of observations/total well numbers: 0/5
0.1 µM, 96h
  BR (beat rate) % change from baseline: -18±4%
  Beating below threshold, number of observations/total well numbers: 0/5
  Cessation of beating, number of observations/total well numbers: 0/5
  EAD, number of observations/total well numbers: 0/5
  FPD (field-potential duration), % change from baseline: 19.6±3.2%
  FPDc (field-potential duration corrected by beat-rate), % change from baseline: 11.8±4.2%
  Flat T-wave-like, number of observations/total well numbers: 0/5
0.3 µM, 2h
  BR (beat rate) % change from baseline: -4±1%
  Beating below threshold, number of observations/total well numbers: 0/5
  Cessation of beating, number of observations/total well numbers: 0/5
  EAD, number of observations/total well numbers: 0/5
  FPD (field-potential duration), % change from baseline: 22.4±5.4 %
  FPDc (field-potential duration corrected by beat-rate), % change from baseline: 20.8±5.2 %
  Flat T-wave-like, number of observations/total well numbers: 0/5
0.3 µM, 24h
  BR (beat rate) % change from baseline: -17±2 %
  Beating below threshold, number of observations/total well numbers: 0/5
  Cessation of beating, number of observations/total well numbers: 0/5
  EAD, number of observations/total well numbers: 0/5
  FPD (field-potential duration), % change from baseline: 61.6±9.1 %
  FPDc (field-potential duration corrected by beat-rate), % change from baseline: 52.4±8.3 %
  Flat T-wave-like, number of observations/total well numbers: 0/5
0.3 µM, 48h
  BR (beat rate) % change from baseline: -13±1%
  Beating below threshold, number of observations/total well numbers: 0/5
  Cessation of beating, number of observations/total well numbers: 0/5
  EAD, number of observations/total well numbers: 0/5
  FPD (field-potential duration), % change from baseline: 46.7±15.8 %
  FPDc (field-potential duration corrected by beat-rate), % change from baseline: 39.9±14.5 %
  Flat T-wave-like, number of observations/total well numbers: 0/5
0.3 µM, 72h
  BR (beat rate) % change from baseline: -19±3 %
  Beating below threshold, number of observations/total well numbers: 0/5
  Cessation of beating, number of observations/total well numbers: 0/5
  EAD, number of observations/total well numbers: 0/5
  FPD (field-potential duration), % change from baseline: 59.3±17.6 %
  FPDc (field-potential duration corrected by beat-rate), % change from baseline: 48.5±15 %
  Flat T-wave-like, number of observations/total well numbers: 0/5
0.3 µM, 96h
  BR (beat rate) % change from baseline: -23±2%
  Beating below threshold, number of observations/total well numbers: 0/5
  Cessation of beating, number of observations/total well numbers: 0/5
  EAD, number of observations/total well numbers: 0/5
  FPD (field-potential duration), % change from baseline: 57±11 %
  FPDc (field-potential duration corrected by beat-rate), % change from baseline: 44.7±10.1 %
  Flat T-wave-like, number of observations/total well numbers: 1/5
1 µM
  wells displaying EAD-like events: one of five wells
1 µM, 2h
  BR (beat rate) % change from baseline: -15±5 %
  Beating below threshold, number of observations/total well numbers: 0/5
  Cessation of beating, number of observations/total well numbers: 0/5
  EAD, number of observations/total well numbers: 1/5
  FPD (field-potential duration), % change from baseline: 80.6±28.8 %
  FPDc (field-potential duration corrected by beat-rate), % change from baseline: 70.6±24.2 %
  Flat T-wave-like, number of observations/total well numbers: 0/5
1 µM, 24h
  BR (beat rate) % change from baseline: -42±3 %
  Beating below threshold, number of observations/total well numbers: 0/5
  Cessation of beating, number of observations/total well numbers: 0/5
  EAD, number of observations/total well numbers: 1/5
  FPD (field-potential duration), % change from baseline: 264.1±51.3 %
  FPDc (field-potential duration corrected by beat-rate), % change from baseline: 200.7±36.5 %
  Flat T-wave-like, number of observations/total well numbers: 2/5
1 µM, 48h
  BR (beat rate) % change from baseline: -37±3 %
  Beating below threshold, number of observations/total well numbers: 0/5
  Cessation of beating, number of observations/total well numbers: 0/5
  EAD, number of observations/total well numbers: 1/5
  FPD (field-potential duration), % change from baseline: 209.3±40.8 %
  FPDc (field-potential duration corrected by beat-rate), % change from baseline: 164.9±31.8 %
1 µM, 72h
  BR (beat rate) % change from baseline: -44±3 %
  Beating below threshold, number of observations/total well numbers: 0/5
  Cessation of beating, number of observations/total well numbers: 0/5
  EAD, number of observations/total well numbers: 1/5
  FPD (field-potential duration), % change from baseline: 260.2±58.2 %
  FPDc (field-potential duration corrected by beat-rate), % change from baseline: 196.4±43 %
  Flat T-wave-like, number of observations/total well numbers: 1/5
1 µM, 96h
  BR (beat rate) % change from baseline: -43±3 %
  Beating below threshold, number of observations/total well numbers: 0/5
  Cessation of beating, number of observations/total well numbers: 0/5
  EAD, number of observations/total well numbers: 1/5
  FPD (field-potential duration), % change from baseline: 208.7±49.5 %
  FPDc (field-potential duration corrected by beat-rate), % change from baseline: 156.3±38.4 %
  Flat T-wave-like, number of observations/total well numbers: 1/5
1 and 0.3 µM, acute and chronic time points
  prolongation of FPD: significant dose-dependent prolongation of the FPD
Any concentration
  cessation of beating: no cessation of beating occurred in any concentration
